How the values were obtained:
[1] = tested on: S. cerevisiae YGL035c expressing WS2; assay: Heterologous expression of WS2 in MIG1 deletion yeast, ethyloleate by TLC and GC; format: cell-based, Saccharomyces cerevisiae
Description: S. cerevisiae YGL035c BY4742 with following genotype: MATalpha his3Δ1 leu2Δ0 lys2Δ0 ura3Δ0 ΔMIG1 was purchased from ATCC ([…]; Manassas, Va.). S. cerevisiae YGL035c was cultivated for electro transformation in YPG (Yeast peptone glucose) medium at 30° C. overnight. 100 μL of washed yeast cell pellets were electroporated with 5 μL of pESC_URA for the negative control or 5 μL of pESC URA WS2, which expresses acyltransferase gene constructs. Cells were rescued with 800 μL 1M sorbitol and 200 μL were plated onto synthetic minimal media drop out agar plates without uracil. Colonies were seen after 2 days and were picked and grown in nitrogen base medium (Difco Detroit Mich.) […], and 0.13% (wt/vol), synthetic dropout medium supplement without uracil, and 2% (wt/vol) glucose. One hundred milliliter yeast cultures were grown aerobically overnight at 30° C. in 250 ml flask with synthetic dropout uracil growth media with glucose. Cells were spun down and resuspended in 200 mL of fresh dropout media with 2% glucose, 0.1% potassium oleate, and 2% galactose to induce expression of heterologous protein. Cultures were capped with a rubber stopper with syringe needle piercing the top of the rubber stopper to allow gas (carbon dioxide) to exit during the 72 hours anaerobic growth. Cells were harvested and resuspended in 1 mL of chloroform and approximately 0.5 grams of glass beads. Total lipid composition of yeast was determined from cells harvested from a 200-ml liquid culture, broken with glass-beads in a 50-mL Falcon tube, and extracted into 1.5 mL of chloroform.
Cells were vortexed vigorously for 5 minutes to lyse open cells and chloroform was removed and evaporated under nitrogen gas. 15 mL sample of 250 mL cultures were centrifuged and lysed with glass beads, the yeast lysates were resuspended in 1 ml chloroform for GC/MS analysis and TLC analysis.
Fifteen milliliters of grown yeast were centrifuged for 10 minutes at 4000 rpm. […]
For quantification of ethyloleate, chloroform extractions of three known amounts (1.5 nmoles, 15 nmoles, and 30 nmoles) of ethyloleate standard were injected into the gas chromatograph (GC) in which the peak areas were integrated to calculate the amounts of ethyloleate produced by YGL035c expressing WS2. Three microliters of chloroform extracts from the samples were injected and analyzed on a gas chromatography electron impact mass spectrometry that were performed with a Hewlett Packard 6890 series gas chromatograph connected to an HP 5973 mass spectrometer. […]

[2] = tested on: S. cerevisiae H1246 expressing WS2; assay: Heterologous expression of WS2 in TAG deficient yeast, FAEE by TLC; format: cell-based, Saccharomyces cerevisiae; settings: H1246 given both ethanol and oleic acid as substrates
Description: Fifteen milliliters of grown yeast were centrifuged for 10 minutes at 4000 rpm. The cell pellets were vortexed vigorously with glass beads for 5 minutes to lyse open cells and extracted with 1 mL chloroform of which 5 μL were spotted on TLC with Whatman normal phase silica gel 60 plates and developed using hexane:diethyl ether:acetic acid (90:10:1, v/v/v). TLC plates were stained with either iodine vapor.

Acs2/WS2 = assay: Acs2/WS2-coupled assay with oleic acid and ethanol (TLC); format: biochemical, Marinobacter hydrocarbonoclasticus; settings: oleic acid and ethanol as substrates, each 250 μM, 37° C. overnight
Description: In vitro coupled assays/TLC analysis—Stock solutions of various fatty acid substrates (oleic acid) were prepared in 50 mM Tris-HCl buffer (pH 8) containing 1% gum arabic, […], 0.1% taurocholate, and 100 mM of fatty acid. WS/Acs enzyme coupled assays were carried out in 500 μL reactions containing 50 mM Tris-HCl buffer pH 8.0, 12.5 μL of fatty acid stock solution and addition of ethyl alcohol solution (final concentrations of each substrate 250 μM), 10 mM MgCl2, 10 mM CoASH, 10 mM ATP, 5 mM TCEP, 0.1 U of inorganic pyrophosphatase, 0.25 μg of Acs2 (acyl CoA synthetase) and 0.5 μg of WS2 (wax ester synthase). Assays were incubated at 37° C. overnight before thin-layer chromatography (TLC) analysis of reaction products. In vitro WS assay samples were extracted with 500 μL of chloroform:methanol (1:1 [vol/vol]), and chloroform:methanol extracts were analyzed by TLC with Whatman normal phase silica gel 60 plates where products were separated using hexane:diethyl ether:acetic acid (90:10:1 [vol/vol/vol]). Products were compared to an ethyloleate standard. Resolved TLC plates were stained with iodine vapor.

| SMILES | Ethyloleate formed from the oleate added ([1]; 250 mL culture, 889 μmoles oleate added) | Ethyloleate production in vivo (TLC) ([1]; Mig1 deletion yeast expressing pESC-URA-WS2, galactose induced, grown anaerobically with 0.1% potassium oleate) | Ethyloleate production in vivo (TLC) ([1]; potassium oleate not supplemented) | Ethyloleate production in vivo (TLC) [2] | % Efficiency oleate to ethyloleate ([1]; 0.1% (wt/vol) oleate in 250 mL (889 μmoles)) [%] | Ethyloleate formation in Acs2/WS2-coupled assay (TLC) (Acs2/WS2) |
| --- | --- | --- | --- | --- | --- | --- |
| CCCCCCCC/C=C\CCCCCCCC(=O)OCC [ethyloleate] | approximately 50 μmol | shown in vivo | No ethyloleate product was seen | produced in vivo | – | – |
| CCCCCCCC/C=C\CCCCCCCC(=O)O [oleic acid] | – | – | – | – | 5.5 | ethyloleate ester product was synthesized in vitro |
